Experimental data published in the supplement of paper PMC4862054.
Several values for one entry are separate records, joined by “and”; a condition that tells them apart may be missing. Identical values can stand only once.

Each compound was assayed on HCC1143 (assay: normalised viability (% of control), CellTiter-Blue; higher = more viable cells (about 100 = DMSO control)). Settings: 1000 nM; incubation time: 72 h.
Outline: (§1)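 Breast cancer cell lines in 20 µl suspension were seeded onto 384-well plates pre-loaded with compound dissolved in 5 µl medium, then incubated 72 h. CellTiter-Blue reagent (2.5 µl) was added for 2 h at 37 °C and fluorescence read at 560/590 nm. Each plate was normalised to vehicle (100) and a positive kill control (0), with Z'-factor quality control. The value is normalised viability at one listed concentration of the series.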

Row | SMILES | normalised viability [%]
1 | CC[C@@H]1C(=O)N(C)c2cnc(Nc3ccc(C(=O)NC4CCN(C)CC4)cc3OC)nc2N1C1CCCC1 [BI 2536] | 52.4
2 | CCN(CC)CCCC(C)Nc1c2ccc(Cl)cc2nc2ccc(OC)cc12 (stereo unspecified) [Mepacrine] | 96.1
3 | Nc1nc2[nH]cc(CCc3ccc(C(=O)N[C@@H](CCC(=O)O)C(=O)O)cc3)c2c(=O)[nH]1 [Pemetrexed] | 77.4
4 | COc1cc([C@@H]2c3cc4c(cc3[C@@H](O[C@@H]3O[C@@H]5CO[C@@H](c6cccs6)O[C@H]5[C@H](O)[C@H]3O)[C@H]3COC(=O)[C@H]23)OCO4)cc(OC)c1O [Teniposide] | 49.5
5 | COc1cc2nccc(Oc3ccc(NC(=O)Nc4cc(C)on4)c(Cl)c3)c2cc1OC [Tivozanib] | 105
6 | O=C(Cc1ccc(-c2ccc(OCCN3CCOCC3)cc2)cn1)NCc1ccccc1 [KX2-391] | 32.3
7 | Nc1ccccc1NC(=O)c1ccc(CNC(=O)OCc2cccnc2)cc1 [Entinostat] | 89.6
8 | C=CC(=O)Nc1cc2c(Nc3ccc(F)c(Cl)c3)ncnc2cc1OCCCN1CCOCC1 [Canertinib] | 89
9 | CC[C@H](Nc1ncnc2[nH]cnc12)c1nc2cccc(F)c2c(=O)n1-c1ccccc1 [CAL-101] | 96.1

Same assay, conditions: 10000 nM; incubation time: 72 h

Row | SMILES | normalised viability
10 | Nc1ncn([C@H]2C[C@H](O)[C@@H](CO)O2)c(=O)n1 [Decitabine] | 56% and 59.8%
11 | CCN(CC)CCCC(C)Nc1c2ccc(Cl)cc2nc2ccc(OC)cc12 (stereo unspecified) [Mepacrine] | 35.5%
12 | Nc1nc2[nH]cc(CCc3ccc(C(=O)N[C@@H](CCC(=O)O)C(=O)O)cc3)c2c(=O)[nH]1 [Pemetrexed] | 72.2%
13 | COc1cc([C@@H]2c3cc4c(cc3[C@@H](O[C@@H]3O[C@@H]5CO[C@@H](c6cccs6)O[C@H]5[C@H](O)[C@H]3O)[C@H]3COC(=O)[C@H]23)OCO4)cc(OC)c1O [Teniposide] | 20.5%
14 | COc1cc2nccc(Oc3ccc(NC(=O)Nc4cc(C)on4)c(Cl)c3)c2cc1OC [Tivozanib] | 94.5%
15 | O=C(Cc1ccc(-c2ccc(OCCN3CCOCC3)cc2)cn1)NCc1ccccc1 [KX2-391] | 39.5%
16 | Nc1ccccc1NC(=O)c1ccc(CNC(=O)OCc2cccnc2)cc1 [Entinostat] | 31.2%
17 | C=CC(=O)Nc1cc2c(Nc3ccc(F)c(Cl)c3)ncnc2cc1OCCCN1CCOCC1 [Canertinib] | 22.6%
18 | CC[C@H](Nc1ncnc2[nH]cnc12)c1nc2cccc(F)c2c(=O)n1-c1ccccc1 [CAL-101] | 76.2%

The compounds below were run on HCC1599 in the same assay as above. Settings: 0.25 nM; incubation time: 72 h.
Outline: as §1

Row | SMILES | normalised viability [%]
19 | CC(=O)Nc1cccc(-n2c(=O)n(C3CC3)c(=O)c3c(Nc4ccc(I)cc4F)n(C)c(=O)c(C)c32)c1 | 93.1

Same assay, conditions: 0.99 nM; incubation time: 72 h

Row | SMILES | normalised viability [%]
20 | CCN(CC)CCCC(C)Nc1c2ccc(Cl)cc2nc2ccc(OC)cc12 (stereo unspecified) [Mepacrine] | 105

Same assay, conditions: 1 nM; incubation time: 72 h

Row | SMILES | normalised viability [%]
21 | O=C(/C=C/c1cccnc1)NCCCCC1CCN(C(=O)c2ccccc2)CC1 [FK-866] | 116
22 | CC[C@@H]1C(=O)N(C)c2cnc(Nc3ccc(C(=O)NC4CCN(C)CC4)cc3OC)nc2N1C1CCCC1 [BI 2536] | 78.7

Same assay, conditions: 10 nM; incubation time: 72 h

Row | SMILES | normalised viability
23 | Nc1ncn([C@H]2C[C@H](O)[C@@H](CO)O2)c(=O)n1 [Decitabine] | 112% and 107%
24 | CCN(CC)CCCC(C)Nc1c2ccc(Cl)cc2nc2ccc(OC)cc12 (stereo unspecified) [Mepacrine] | 85.5%
25 | Nc1nc2[nH]cc(CCc3ccc(C(=O)N[C@@H](CCC(=O)O)C(=O)O)cc3)c2c(=O)[nH]1 [Pemetrexed] | 106%
26 | COc1cc([C@@H]2c3cc4c(cc3[C@@H](O[C@@H]3O[C@@H]5CO[C@@H](c6cccs6)O[C@H]5[C@H](O)[C@H]3O)[C@H]3COC(=O)[C@H]23)OCO4)cc(OC)c1O [Teniposide] | 80.8%
27 | COc1cc2nccc(Oc3ccc(NC(=O)Nc4cc(C)on4)c(Cl)c3)c2cc1OC [Tivozanib] | 121%
28 | O=C(Cc1ccc(-c2ccc(OCCN3CCOCC3)cc2)cn1)NCc1ccccc1 [KX2-391] | 95.6%
29 | Nc1ccccc1NC(=O)c1ccc(CNC(=O)OCc2cccnc2)cc1 [Entinostat] | 122%
30 | C=CC(=O)Nc1cc2c(Nc3ccc(F)c(Cl)c3)ncnc2cc1OCCCN1CCOCC1 [Canertinib] | 96.2%
31 | CC[C@H](Nc1ncnc2[nH]cnc12)c1nc2cccc(F)c2c(=O)n1-c1ccccc1 [CAL-101] | 84.8%

Same assay, conditions: 25 nM; incubation time: 72 h

Row | SMILES | normalised viability [%]
32 | CC(=O)Nc1cccc(-n2c(=O)n(C3CC3)c(=O)c3c(Nc4ccc(I)cc4F)n(C)c(=O)c(C)c32)c1 | 69.8

Same assay, conditions: 99 nM; incubation time: 72 h

Row | SMILES | normalised viability [%]
33 | CCN(CC)CCCC(C)Nc1c2ccc(Cl)cc2nc2ccc(OC)cc12 (stereo unspecified) [Mepacrine] | 82.1

Same assay, conditions: 100 nM; incubation time: 72 h

Row | SMILES | normalised viability [%]
34 | O=C(/C=C/c1cccnc1)NCCCCC1CCN(C(=O)c2ccccc2)CC1 [FK-866] | 19.5
35 | CC[C@@H]1C(=O)N(C)c2cnc(Nc3ccc(C(=O)NC4CCN(C)CC4)cc3OC)nc2N1C1CCCC1 [BI 2536] | 81.5

Same assay, conditions: 250 nM; incubation time: 72 h

Row | SMILES | normalised viability [%]
36 | CC(=O)Nc1cccc(-n2c(=O)n(C3CC3)c(=O)c3c(Nc4ccc(I)cc4F)n(C)c(=O)c(C)c32)c1 | 50.1

Same assay, conditions: 990 nM; incubation time: 72 h

Row | SMILES | normalised viability [%]
37 | CCN(CC)CCCC(C)Nc1c2ccc(Cl)cc2nc2ccc(OC)cc12 (stereo unspecified) [Mepacrine] | 67.3

Same assay, conditions: 1000 nM; incubation time: 72 h

Row | SMILES | normalised viability [%]
38 | O=C(/C=C/c1cccnc1)NCCCCC1CCN(C(=O)c2ccccc2)CC1 [FK-866] | 17
39 | CC[C@@H]1C(=O)N(C)c2cnc(Nc3ccc(C(=O)NC4CCN(C)CC4)cc3OC)nc2N1C1CCCC1 [BI 2536] | 61.3
40 | CCN(CC)CCCC(C)Nc1c2ccc(Cl)cc2nc2ccc(OC)cc12 (stereo unspecified) [Mepacrine] | 79.5
41 | Nc1nc2[nH]cc(CCc3ccc(C(=O)N[C@@H](CCC(=O)O)C(=O)O)cc3)c2c(=O)[nH]1 [Pemetrexed] | 80.2
42 | COc1cc([C@@H]2c3cc4c(cc3[C@@H](O[C@@H]3O[C@@H]5CO[C@@H](c6cccs6)O[C@H]5[C@H](O)[C@H]3O)[C@H]3COC(=O)[C@H]23)OCO4)cc(OC)c1O [Teniposide] | 65.1
43 | COc1cc2nccc(Oc3ccc(NC(=O)Nc4cc(C)on4)c(Cl)c3)c2cc1OC [Tivozanib] | 98.8
44 | O=C(Cc1ccc(-c2ccc(OCCN3CCOCC3)cc2)cn1)NCc1ccccc1 [KX2-391] | 62.3
45 | Nc1ccccc1NC(=O)c1ccc(CNC(=O)OCc2cccnc2)cc1 [Entinostat] | 86.6
46 | C=CC(=O)Nc1cc2c(Nc3ccc(F)c(Cl)c3)ncnc2cc1OCCCN1CCOCC1 [Canertinib] | 106
47 | CC[C@H](Nc1ncnc2[nH]cnc12)c1nc2cccc(F)c2c(=O)n1-c1ccccc1 [CAL-101] | 77.9

Same assay, conditions: 10000 nM; incubation time: 72 h

Row | SMILES | normalised viability
48 | Nc1ncn([C@H]2C[C@H](O)[C@@H](CO)O2)c(=O)n1 [Decitabine] | 82% and 106%
49 | CCN(CC)CCCC(C)Nc1c2ccc(Cl)cc2nc2ccc(OC)cc12 (stereo unspecified) [Mepacrine] | 30.9%
50 | Nc1nc2[nH]cc(CCc3ccc(C(=O)N[C@@H](CCC(=O)O)C(=O)O)cc3)c2c(=O)[nH]1 [Pemetrexed] | 106%
51 | COc1cc([C@@H]2c3cc4c(cc3[C@@H](O[C@@H]3O[C@@H]5CO[C@@H](c6cccs6)O[C@H]5[C@H](O)[C@H]3O)[C@H]3COC(=O)[C@H]23)OCO4)cc(OC)c1O [Teniposide] | 47.9%
